The values below are quoted from earlier work in US6413950B1, “Pharmaceutical preparation containing dithranol” (esparma GmbH, priority 1999, dated 2002).

For this data set the following is noted: background statement on the active agent dithranol.

In the case of `O=C1c2c(O)cccc2Cc2cccc(O)c21` [Dithranol], the solubility in water result is listed as “not soluble in water”.
